According to patent US20160222021A1, “ARYL ETHER-BASE KINASE INHIBITORS” (BRISTOL-MYERS SQUIBB COMPANY, priority 2013, published 2016):

molecular target: T1, GST-Xa-hAAK1 (Homo sapiens, UniProt Q2M2I8); assay: AAK1 Kinase Assay; assay type: biochemical; conditions: ATP 22 μM; IC50 ranges
T1 construct: made in house
Method: The assays were performed in U-bottom 384-well plates. The final assay volume was 30 μl prepared from 15 μl additions of enzyme and substrates (fluoresceinated peptide (5-FAM)-Aha-[…]-NH2 and ATP) and test compounds in assay buffer (10 mM Tris-HCL pH 7.4, 10 mM MgCl2, 0.01% Tween-20 and 1.0 mM DTT). The reactions were initiated by the combination of bacterially expressed, GST-Xa-hAAK1 with substrates and test compounds. The reactions were incubated at room temperature for 3 hours and terminated by adding 60 μl of 35 mM EDTA buffer to each sample. The reactions were analyzed on the Caliper LabChip 3000 (Caliper, Hopkinton, Mass.) by electrophoretic separation of the fluorescent substrate and phosphorylated product. […] The final concentration of reagents in the assays are ATP, 22 μM; (5-FAM)-Aha-[…]-NH2, 1.5 μM; GST-Xa-hAAK1, 3.5 nM; and DMSO, 1.6%. Dose response curves were generated to determine the concentration required inhibiting 50% of kinase activity (IC50). Compounds were dissolved at 10 mM in dimethylsulfoxide (DMSO) and evaluated at eleven concentrations. IC50 values were derived by non-linear regression analysis.

T1 sequence (Q2M2I8 whole entry): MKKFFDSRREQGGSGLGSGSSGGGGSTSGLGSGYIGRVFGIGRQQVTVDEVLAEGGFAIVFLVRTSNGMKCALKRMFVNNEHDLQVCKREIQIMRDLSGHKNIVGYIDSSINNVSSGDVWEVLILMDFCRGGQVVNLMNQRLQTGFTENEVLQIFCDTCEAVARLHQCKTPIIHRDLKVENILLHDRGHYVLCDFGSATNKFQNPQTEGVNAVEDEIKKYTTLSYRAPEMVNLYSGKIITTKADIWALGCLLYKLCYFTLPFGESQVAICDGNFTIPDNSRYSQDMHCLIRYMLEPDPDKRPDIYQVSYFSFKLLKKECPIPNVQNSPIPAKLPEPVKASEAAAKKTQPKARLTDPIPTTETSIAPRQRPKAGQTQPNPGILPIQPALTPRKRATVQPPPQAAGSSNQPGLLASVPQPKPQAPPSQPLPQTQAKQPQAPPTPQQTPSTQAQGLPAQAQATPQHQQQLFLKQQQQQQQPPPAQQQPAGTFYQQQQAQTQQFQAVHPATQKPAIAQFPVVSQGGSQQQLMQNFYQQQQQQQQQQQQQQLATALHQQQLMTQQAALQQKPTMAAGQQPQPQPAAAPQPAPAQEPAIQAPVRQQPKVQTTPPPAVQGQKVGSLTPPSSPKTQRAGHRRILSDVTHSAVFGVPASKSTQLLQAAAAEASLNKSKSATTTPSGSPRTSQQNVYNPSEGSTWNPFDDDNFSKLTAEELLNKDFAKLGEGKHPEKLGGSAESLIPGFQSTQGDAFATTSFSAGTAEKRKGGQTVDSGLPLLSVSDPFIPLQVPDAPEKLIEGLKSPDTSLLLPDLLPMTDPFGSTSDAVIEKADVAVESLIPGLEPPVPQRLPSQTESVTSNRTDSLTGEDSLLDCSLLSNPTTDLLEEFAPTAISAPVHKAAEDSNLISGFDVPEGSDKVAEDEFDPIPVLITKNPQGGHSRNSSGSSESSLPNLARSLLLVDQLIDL

SMILES | IC50 [nM]
COC(=O)Nc1cc2c(cn1)COc1c-2ccc(OCC(C)(N)CC(C)C)c1OC (racemic) [Example 69, methyl (8-((2-amino-2,4-dimethylpentyl)oxy)-7-methoxy-5H-chromeno[3,4-c]pyridin-2-yl)carbamate] | < 1
COC(=O)Nc1cc2c(cn1)COc1c-2ccc(OCC(C)(N)CC(C)C)c1C#N (racemic) [Example 79, methyl (8-((2-amino-2,4-dimethylpentyl)oxy)-7-cyano-5H-chromeno[3,4-c]pyridin-2-yl)carbamate] | < 1
CC(C)C[C@H](N)COc1ccc2c(c1)OC(C1CC1)c1cnccc1-2 (single isomer, unassigned) [Example 8a] | 100 to 1200
CC(C)C[C@@H](N)COc1ccc2c(c1)OC(C1CC1)c1cnccc1-2 (single isomer, unassigned) [Example 9a] | 100 to 1200
CC(C)C[C@@H](N)COc1ccc2c(c1)OC(C1CC1)c1cnccc1-2 (single isomer, unassigned) [Example 9b] | 100 to 1200
CC(C)C[C@H](N)COc1cc2c(cc1Cl)-c1ccncc1[C@H](C(F)(F)F)O2 (single isomer, unassigned) [Example 27a] | 1 to 10
CC(C)C[C@@H](N)COc1ccc2c(c1)OC(C1CC1)c1cnccc1-2 (stereo partly drawn) [Example 9] | 100 to 1200
CC(C)C[C@H](N)COc1cc2oc(=O)c3cnccc3c2cc1Br [Example 25, (S)-8-(2-amino-4-methylpentyloxy)-9-bromo-5H-chromeno[3,4-c]pyridin-5-one] | 1 to 10
Cc1cc2c(cn1)COc1cc(OC[C@@H](N)CC(C)C)ccc1-2 [Example 39, (S)-4-methyl-1-((2-methyl-5H-chromeno[3,4-c]pyridin-8-yl)oxy)pentan-2-amine] | 100 to 1200
CC(C)C[C@H](N)COc1ccc2c(c1)OC(C(C)C)c1cnccc1-2 (stereo partly drawn) [Example 51, (2S)-1-((5-isopropyl-5H-chromeno[3,4-c]pyridin-8-yl)oxy)-4-methylpentan-2-amine] | 10 to 100
CC(C)C[C@H](N)COc1ccc2c(c1)OC(C(C)C)c1cnccc1-2 (stereo partly drawn) [Example 55, (2S)-1-((5-isopropyl-5H-chromeno[3,4-c]pyridin-8-yl)oxy)-4-methylpentan-2-amine] | 10 to 100
CCNc1cc2c(cn1)COc1cc(OC[C@@H](N)CC(C)C)ccc1-2 [Example 58, (S)-8-((2-amino-4-methylpentyl)oxy)-N-ethyl-5H-chromeno[3,4-c]pyridin-2-amine] | 10 to 100
CC(C)C[C@H](N)COc1cc2c(cc1Cl)-c1cc(N)ncc1CO2 [Example 71, (S)-8-((2-amino-4-methylpentyl)oxy)-9-chloro-5H-chromeno[3,4-c]pyridin-2-amine] | 1 to 10
CC(C)C[C@H](N)COc1ccc2c(c1)OCc1cnc(NC(=O)c3cc(F)cc(F)c3)cc1-2 [Example 72, (S)—N-(8-((2-amino-4-methylpentyl)oxy)-5H-chromeno[3,4-c]pyridin-2-yl)-3,5-difluorobenzamide] | 100 to 1200
COC(=O)Nc1cc2c(cn1)COc1c-2ccc(OC[C@@](C)(N)CC(C)C)c1C#N [Example 80, (S)-methyl (8-((2-amino-2,4-dimethylpentyl)oxy)-7-cyano-5H-chromeno[3,4-c]pyridin-2-yl)carbamate] | < 1

The remaining lines, values ahead:

IC50 [nM] | SMILES
1 to 10 | CC(C)CC(C)(N)COc1ccc2c(c1)OCc1cnc(N)cc1-2 (racemic) [Example 68, 8-((2-amino-2,4-dimethylpentyl)oxy)-5H-chromeno[3,4-c]pyridin-2-amine]
1 to 10 | [2H]C([2H])(Oc1ccc2c(c1)OCc1cnc(NC(C)=O)cc1-2)C(C)(N)CC(C)C (racemic) [Example 78, N-(8-((2-amino-1,1-deutero-2,4-dimethylpentyl)oxy)-5H-chromeno[3,4-c]pyridin-2-yl)acetamide]
< 1 | [2H]C([2H])(Oc1ccc2c(c1C#N)OCc1cnc(NC(=O)OC)cc1-2)C(C)(N)CC(C)C (racemic) [Example 94, methyl (8-((2-amino-1,1-deutero-2,4-dimethylpentyl)oxy)-7-cyano-5H-chromeno[3,4-c]pyridin-2-yl)carbamate]
1 to 10 | [2H]C([2H])(Oc1ccc2c(c1)OCc1cnc(NC(=O)OCC)cc1-2)C(C)(N)CC(C)C (racemic) [Example 96, ethyl (8-((2-amino-1,1-deutero-2,4-dimethylpentyl)oxy)-5H-chromeno[3,4-c]pyridin-2-yl)carbamate]
10 to 100 | CC(C)C[C@H](N)COc1ccc2c(c1)OC(C(F)(F)F)c1cnccc1-2 (single isomer, unassigned; diastereomer 2) [Example 53]
100 to 1200 | N[C@@H](COc1ccc2c(c1)OCc1cnccc1-2)Cc1ccccc1 [Example 2, (R)-1-(5H-chromeno[3,4-c]pyridin-8-yloxy)-3-phenylpropan-2-amine]
100 to 1200 | CC[C@@H](N)COc1ccc2c(c1)OCc1cnccc1-2 [Example 3, (R)-1-(5H-chromeno[3,4-c]pyridin-8-yloxy)butan-2-amine]
100 to 1200 | CC(C)C[C@H](N)COc1ccc2c(c1)OC1(COC1)c1cnccc1-2 [Example 19, (S)-4-methyl-1-(spiro[chromeno[3,4-c]pyridine-5,3′-oxetan]-8-yloxy)pentan-2-amine]
100 to 1200 | CC(=O)Nc1nccc2c1C(C)Oc1cc(OC[C@@H](N)CC(C)C)ccc1-2 (stereo partly drawn) [Example 47, N-(8-(((S)-2-amino-4-methylpentyl)oxy)-5-methyl-5H-chromeno[3,4-c]pyridin-4-yl)acetamide]
10 to 100 | CC(C)C[C@H](N)COc1ccc2c(c1)OC(C(F)(F)F)c1cnccc1-2 (stereo partly drawn) [Example 49, (2S)-4-methyl-1-((5-(trifluoromethyl)-5H-chromeno[3,4-c]pyridin-8-yl)oxy)pentan-2-amine]
10 to 100 | CC(C)C[C@H](N)COc1ccc2c(c1)OCc1cnc(NC(=O)C(C)C)cc1-2 [Example 61, (S)—N-(8-((2-amino-4-methylpentyl)oxy)-5H-chromeno[3,4-c]pyridin-2-yl)isobutyramide]
1 to 10 | CC(=O)Nc1cc2c(cn1)COc1cc(OC[C@@H](N)CC(C)C)cc(F)c1-2 [Example 62, (S)—N-(8-((2-amino-4-methylpentyl)oxy)-10-fluoro-5H-chromeno[3,4-c]pyridin-2-yl)acetamide]
1 to 10 | COC(=O)Nc1cc2c(cn1)COc1cc(OC[C@@](C)(N)CC(C)C)c(Cl)cc1-2 [Example 83, (S)-methyl (8-((2-amino-2,4-dimethylpentyl)oxy)-9-chloro-5H-chromeno[3,4-c]pyridin-2-yl)carbamate]
1 to 10 | COC(=O)Nc1cc2c(cn1)COc1c-2ccc(OC[C@@H](N)CC(C)C)c1C#N [Example 84, (S)-methyl (8-((2-amino-4-methylpentyl)oxy)-7-cyano-5H-chromeno[3,4-c]pyridin-2-yl)carbamate]
< 1 | COc1c(OC[C@@](C)(N)CC(C)C)ccc2c1OCc1cnc(NC(C)=O)cc1-2 [Example 85, (S)—N-(8-((2-amino-2,4-dimethylpentyl)oxy)-7-methoxy-5H-chromeno[3,4-c]pyridin-2-yl)acetamide]
< 1 | CC(=O)Nc1cc2c(cn1)COc1c-2ccc(OC[C@@](C)(N)CC(C)C)c1OC(F)F [Example 87, (S)—N-(8-((2-amino-2,4-dimethylpentyl)oxy)-7-(difluoromethoxy)-5H-chromeno[3,4-c]pyridin-2-yl)acetamide]
< 1 | CC(C)C[C@](C)(N)COc1ccc2c(c1Cl)OCc1cnc(N)cc1-2 [Example 88, (S)-8-((2-amino-2,4-dimethylpentyl)oxy)-7-chloro-5H-chromeno[3,4-c]pyridin-2-amine]

same assay, conditions: ATP 22 μM; numeric values

SMILES | IC50 [nM]
[2H]C([2H])(Oc1ccc2c(c1)OCc1cnc(NC(=O)OC)cc1-2)C(C)(N)CC(C)C (racemic) [Example 75, methyl (8-((2-amino-1,1-deutero-2,4-dimethylpentyl)oxy)-5H-chromeno[3,4-c]pyridin-2-yl)carbamate] | 2.3
COC(=O)Nc1cc2c(cn1)COc1c-2ccc(OC[C@@](C)(N)CC(C)C)c1OC [Example 86, (S)-methyl (8-((2-amino-2,4-dimethylpentyl)oxy)-7-methoxy-5H-chromeno[3,4-c]pyridin-2-yl)carbamate] | 0.39

Further lines, results first:

IC50 [nM] | SMILES
0.87 | CC(=O)Nc1cc2c(cn1)COc1cc(OC[C@@](C)(N)CC(C)C)ccc1-2 [Example 45, (S)—N-(8-((2-amino-2,4-dimethylpentyl)oxy)-5H-chromeno[3,4-c]pyridin-2-yl)acetamide]
1200 | CC(=O)Nc1nccc2c1C(C1CC1)Oc1cc(OC[C@@H](N)CC(C)C)ccc1-2 (stereo partly drawn) [Example 48, N-(8-(((S)-2-amino-4-methylpentyl)oxy)-5-cyclopropyl-5H-chromeno[3,4-c]pyridin-4-yl)acetamide]
12 | CC(C)C[C@H](N)COc1ccc2c(c1)OC(C1CC1)c1c-2ccnc1N (stereo partly drawn) [Example 50, 8-(((S)-2-amino-4-methylpentyl)oxy)-5-cyclopropyl-5H-chromeno[3,4-c]pyridin-4-amine]
305 | CNc1nccc2c1COc1cc(OC[C@@H](N)CC(C)C)ccc1-2 [Example 54, (S)-8-((2-amino-4-methylpentyl)oxy)-N-methyl-5H-chromeno[3,4-c]pyridin-4-amine]
21 | CC1Oc2cc(OC[C@@H](N)CC3CC3)ccc2-c2ccncc21 (stereo partly drawn) [Example 56, (2S)-1-cyclopropyl-3-((5-methyl-5H-chromeno[3,4-c]pyridin-8-yl)oxy)propan-2-amine]
